Key:
[1] = pH of the mixture or of the acidified cysteine solution; conditions: 0.05 g of cysteine in 1 mL of 0.0001 M HCl
[2] = Precipitation time upon mixing the cysteine solution and the ZLC solution; type: physicochemical

pH of solution 1 [1]	precipitation upon mixing ([2]; 0.05 g amino acid in 1 mL 0.0001M HCl, 4.95 g ZLC stock solution with no glycerol)	effect on precipitation time of ZLC ([2]; sulfur-containing amino acids)	SMILES
5.13	–	–	N[C@@H](CS)C(=O)O [cysteine]
–	No precipitation occurred	no effect	CSCC[C@H](N)C(=O)O [methionine]

Source: US9675823B2 (Colgate-Palmolive Company, priority 2012, dated 2017)
